# Results: patent US5028629A, “5-Lipoxygenase inhibitors” (Eli Lilly and Company, priority 1990, dated 1991)
# Read-outs that look alike come from different tables or passages of the source.
# Legend:
# 5-lipoxygenase = molecular target: T1, 5-lipoxygenase (Cavia porcellus, UniProt A0A286X958); experiment: 5-Lipoxygenase (5-LO) Assay: 5-HETE formation in supernatant of guinea pig PMNL sonicate; type: biochemical
# T1 construct: 0.2 ml of the supernatant obtained from the PMNL sonicate; endogenous in cells; host or cells: casein-elicited guinea pig peritoneal polymorphonuclear leukocytes (PMNL), sonicate, 30,000 x g supernatant
# T1 sequence (A0A286X958 1-674): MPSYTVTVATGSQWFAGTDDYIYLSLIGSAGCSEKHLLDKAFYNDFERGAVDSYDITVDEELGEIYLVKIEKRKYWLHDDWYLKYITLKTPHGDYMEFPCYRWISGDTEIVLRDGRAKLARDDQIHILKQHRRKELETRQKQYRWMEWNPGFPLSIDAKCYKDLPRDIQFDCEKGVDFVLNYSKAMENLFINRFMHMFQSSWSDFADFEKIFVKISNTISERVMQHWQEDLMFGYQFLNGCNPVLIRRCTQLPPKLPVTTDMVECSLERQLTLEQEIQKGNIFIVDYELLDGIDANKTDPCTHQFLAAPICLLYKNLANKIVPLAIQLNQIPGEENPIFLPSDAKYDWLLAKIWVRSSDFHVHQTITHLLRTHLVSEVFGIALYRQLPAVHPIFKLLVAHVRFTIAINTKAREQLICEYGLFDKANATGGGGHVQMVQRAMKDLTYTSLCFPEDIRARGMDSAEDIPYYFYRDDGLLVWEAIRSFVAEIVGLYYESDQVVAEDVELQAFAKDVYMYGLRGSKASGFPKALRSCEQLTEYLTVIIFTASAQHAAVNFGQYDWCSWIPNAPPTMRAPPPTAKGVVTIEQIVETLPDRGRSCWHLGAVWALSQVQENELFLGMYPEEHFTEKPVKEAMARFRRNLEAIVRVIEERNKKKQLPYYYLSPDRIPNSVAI
# Method: Ten milliliters of a 2% casein solution is injected intraperitoneally to guinea pigs weighing 250-300 gm. After 16-18 hours, the guinea pigs are killed by suffocation in a carbon dioxide chamber. The peritoneal cavity is infused with 70 ml of saline and 40-50 ml of the fluid is recovered from the cavity. After centrifugation, cell pellets are washed twice in Hank's balanced salt solution (HBSS) without calcium ion.
# The cells are then suspended in 5 ml of sodium phosphate buffer, pH 7.1 containing 1 mM, ethylene diamine tetraacetic acid (EDTA), and 0.1% gelatin. About 20-30×10^7 cells are obtained from one guinea pig.
# The PMNL suspension is disrupted by five 1/2-second pulse sonication at the setting of 3 in a Branson Sonifier, Model 350, equipped with a microtip. The sonicates are combined and centrifuged at 30,000 ×g for 10 minutes. The supernatant is kept frozen at -70° C. until use.
# Enzyme activity is determined by assaying for 5-hydroxy-6,8,11,14-eicosatetraenoic acid (5-HETE) formation by first incubating 0.2 ml of the supernatant obtained from the PMNL sonicate with the test compound, 1 mM CaCl2, 2 mM ATP, and 1 mM GSH for 5 minutes at 37° C. The mixture is treated with […] ^14 C-arachidonic acid and incubated at 37° C. an additional 10 minutes. The enzyme reaction is then stopped by the addition of 10 μl of 1M citric acid and 10 μl of an alcohol solution containing 20 mg/ml each of indomethacin and butylated hydroxyanisole (BHA). The reaction mixture is spotted (50 μl) on a silica gel plate (Baker TLC plate S1250-PA-19C) and subjected to TLC in a solvent system of ethyl acetate/2,2,4-trimethylpentane/glacialacetic acid/H2 O (90:50:20:100).
# The radioactivity of the arachidonic acid and its metabolites (5-HETE and LTB4) is visualized from a developed x-ray film which had been exposed to the TLC plate 1-2 days. The amount of 5-HETE formed is quantitated by scraping the silica gel area corresponding to the spot on the x-ray film, and the radioactivity determined in a Isocap/300 liquid scintillation counter (Searle Analytic, Inc.).
# The percent inhibition of the formation of 5-HETE is determined for each concentration of compound tested as compared to a control experiment wherein no test compound is added. The concentration and percent values are plotted on semi log paper and the concentration in which formation of 5-HETE is inhibited by 50% (IC50) is determined by interpolation.
# [1] = system: polymorphonuclear leukocytes (PMNs); experiment: H-PMN Assay: LTB4 content of supernatant of A23187-stimulated human PMNs by radioimmunoassay; type: cell-based; conditions: Leukocyte
# Method: Sodium citrated venous blood is drawn from normal human subjects. After centrifugation at 300 ×g for 15 minutes, the platelet-rich layer of plasma is discarded and an equal volume of Hanks' balanced salt solution (HBSS) is added to the enriched cell fraction. This platelet-depleted cell suspension is then layered on an equal volume of Ficoll-Paque. After centrifugation for 40 minutes at 300 ×g, the bottom layer containing erythrocytes and polymorphonuclear leukocytes (PMNs) is diluted with two volumes of a 0.2% methocel solution. The erythrocytes are sedimented upon standing for 15 minutes, and the supernatant containing the PMNs is aspirated and centrifuged at 300 ×g, for 5 minutes. The cell pellet is then exposed to 0.2% NaCl for 30 seconds to lyse any remaining erythrocytes, and the ionic strength of the suspension is readjusted to 0.9% with NaCl. The PMNs are recovered by centrifugation at 300 ×g for 5 minutes and are suspended in HBSS to a concentration of 2 ×10^6 cells/ml.
# The test compounds are dissolved in and diluted with dimethylsulfoxide (DMSO) which also contains 2×10^-6 M of the calcium ionophore, A23187. To 1 ml of the PMN suspension, 10 μl of the DMSO solution is added, and the mixture is incubated at 37° C. for 10 minutes. The PMNs are rapidly pelleted in a microcentrifuge, and the supernatant is kept at -20° C. for future determination of LTB4 content via the radioimmunoassay.
# [2] = Table II, guinea pig PMNL sonicate supernatant, 14C-arachidonic acid, 37° C., read-out: 5-LO (concentration in which formation of 5-HETE is inhibited by 50%, IC50)
# [3] = 10 min, Table II, human PMNs, calcium ionophore A23187, 37° C. for 10 minutes, LTB4 by radioimmunoassay
# [4] = second table (Table III), known hydroxamic acid derivatives as comparison, read-out: 5-Lo (IC50)
# [5] = Homo sapiens, second table (Table III), known hydroxamic acid derivatives as comparison
SMILES,IC50 (5-lipoxygenase; [2]),"IC50 [1, 3]",IC50 (5-lipoxygenase; [4]),"IC50 [1, 5]"
"CCCCSc1ccc(CCCc2ccccc2)cc1C=CC(=O)N(C)O [Example 29, 2-n-butylthio-5-(3-phenylpropyl)-N-hydroxy-N-methylcinnamamide]",94 nM,58 nM,–,–
"CN(O)C(=O)C=Cc1ccccc1SCCCc1ccccc1 [Example 35, 2-[1-(3-phenylpropyl)thio]-N-hydroxy-N-methylcinnamamide]",9 nM,16 nM,–,–
"CN(O)C(=O)C=Cc1ccccc1SCCCCCC(F)(F)F [Example 44, 2-[1-(5-trifluoromethylpentyl)thio]-N-hydroxy-N-methylcinnamamide]",31 nM,17 nM,–,–
COc1ccccc1C=CC(=O)N(C)O [reference compound],–,–,1200 nM,143 nM
CCCCSc1ccc(CCCc2ccccc2)cc1C(=O)N(C)O [reference compound],–,–,178 nM,440 nM
CN(O)C(=O)C=Cc1ccccc1OCc1ccccc1 [reference compound],–,–,54 nM,42 nM
CCCCOc1ccccc1C=CC(=O)N(C)O [reference compound],–,–,41 nM,52 nM

# The remaining molecules from weak to strong by IC50 (5-lipoxygenase; [2]), led by results:
IC50 (5-lipoxygenase; [2]),"IC50 [1, 3]",IC50 (5-lipoxygenase; [4]),"IC50 [1, 5]",SMILES
392 nM,100 nM,–,–,"CSc1ccccc1C=CC(=O)N(C)O [Example 23, 2-methylthio-N-hydroxy-N-methyl-cinnamamide]"
60 nM,12 nM,–,–,"CN(O)C(=O)C=Cc1ccccc1CCCc1ccccc1 [Example 43, 2-(3-phenylpropyl)-N-hydroxy-N-methylcinnamamide]"
59 nM,46 nM,–,–,"CCc1ccc(CCCc2ccccc2)cc1C=CC(=O)N(C)O [Example 30, 2-ethyl-5-(3-phenylpropyl)-N-hydroxy-N-methylcinnamamide]"
58 nM,20 nM,–,–,"CCCCCCc1ccc(SC)c(C=CC(=O)N(C)O)c1 [Example 45, 2-methylthio-5-n-hexyl-N-hydroxy-N-methylcinnamamide]"
53 nM,28 nM,–,–,"CN(O)C(=O)C=Cc1ccccc1Cc1ccccc1 [Example 37, 2-benzyl-N-hydroxy-N-methylcinnamamide]"
52 nM,17 nM,–,–,"CC(C)CSc1ccccc1C=CC(=O)N(C)O [Example 40, 2-[1-(2-methylpropyl)thio]-N-hydroxy-N-methylcinnamamide]"
47 nM,22 nM,–,–,"CCCCSc1ccccc1C=CC(=O)N(C)O [Example 33, 2-(n-butylthio)-N-hydroxy-N-methylcinnamamide]"
33 nM,7 nM,–,–,"CN(O)C(=O)C=Cc1ccccc1SCc1ccccc1 [Example 31, 2-benzylthio-N-hydroxy-N-methylcinnamamide]"
28 nM,11 nM,–,–,"CCCCCCCCSc1ccccc1C=CC(=O)N(C)O [Example 38, 2-n-octylthio-N-hydroxy-N-methylcinnamamide]"
26 nM,18 nM,–,–,"CSc1ccc(CCCc2ccccc2)cc1C=CC(=O)N(C)O [Example 27, 2-(methylthio)-5-(3-phenylpropyl)-N-hydroxy-N-methylcinnamamide]"
